Measured values as given in patent US6716833B2, “Acetylenic α-amino acid-based sulfonamide hydroxamic acid tace inhibitors” (priority 1999, dated 2004).
Structures can show the parent of a compound that is named as a salt. Where two headings read alike, the source gives them in different places.

Columns and labels:
MMP-1 = biological target: T1, MMP-1 (Homo sapiens, UniProt P03956); assay: MMP-1 inhibition (thiopeptide or fluorescent peptide substrate); format: biochemical; conditions: read-out: MMP-1 IC50
T1 sequence (P03956 100-469): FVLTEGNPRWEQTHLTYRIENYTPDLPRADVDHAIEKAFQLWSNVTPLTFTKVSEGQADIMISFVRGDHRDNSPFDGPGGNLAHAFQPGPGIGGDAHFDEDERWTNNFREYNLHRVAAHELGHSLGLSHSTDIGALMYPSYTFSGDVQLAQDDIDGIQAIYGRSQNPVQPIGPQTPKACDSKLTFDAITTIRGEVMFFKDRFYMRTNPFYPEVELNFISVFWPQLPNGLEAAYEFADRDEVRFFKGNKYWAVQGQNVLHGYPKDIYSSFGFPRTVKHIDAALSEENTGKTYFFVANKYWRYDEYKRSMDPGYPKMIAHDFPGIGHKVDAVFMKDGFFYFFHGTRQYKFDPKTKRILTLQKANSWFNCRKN

MMP-13 = MMP-13 (Homo sapiens, UniProt P45452); assay: MMP-13 inhibition (thiopeptide or fluorescent peptide substrate); format: biochemical; conditions: read-out: MMP-13 IC50
[1] = biological target: TNF-α converting enzyme (TACE) (Homo sapiens, UniProt P78536); assay: TACE inhibition (fluorescent peptidyl substrate); format: biochemical; conditions: read-out: TACE IC50
Sequence of TNF-α converting enzyme (TACE) (P78536 215-824, species assumed): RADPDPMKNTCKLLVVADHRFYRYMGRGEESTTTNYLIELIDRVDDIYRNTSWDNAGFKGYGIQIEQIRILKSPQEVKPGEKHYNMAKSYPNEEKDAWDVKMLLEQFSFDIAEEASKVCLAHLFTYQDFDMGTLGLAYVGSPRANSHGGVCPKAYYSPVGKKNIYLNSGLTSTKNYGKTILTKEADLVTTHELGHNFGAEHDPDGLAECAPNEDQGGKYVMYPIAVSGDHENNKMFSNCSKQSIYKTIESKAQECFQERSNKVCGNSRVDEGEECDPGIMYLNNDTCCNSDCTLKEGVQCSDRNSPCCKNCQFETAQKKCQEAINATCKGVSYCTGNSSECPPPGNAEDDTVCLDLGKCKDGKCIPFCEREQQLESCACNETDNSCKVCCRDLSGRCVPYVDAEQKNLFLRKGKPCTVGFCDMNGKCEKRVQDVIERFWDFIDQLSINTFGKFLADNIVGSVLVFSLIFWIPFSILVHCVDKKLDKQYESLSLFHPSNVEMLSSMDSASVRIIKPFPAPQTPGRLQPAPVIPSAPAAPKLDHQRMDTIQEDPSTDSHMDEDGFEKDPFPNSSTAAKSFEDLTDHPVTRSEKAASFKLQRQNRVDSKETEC

MMP-9 = MMP-9 (Homo sapiens, UniProt P14780); assay: MMP-9 inhibition (thiopeptide or fluorescent peptide substrate); format: biochemical; conditions: read-out: MMP-9 IC50
Sequence of MMP-9 (P14780 94-707): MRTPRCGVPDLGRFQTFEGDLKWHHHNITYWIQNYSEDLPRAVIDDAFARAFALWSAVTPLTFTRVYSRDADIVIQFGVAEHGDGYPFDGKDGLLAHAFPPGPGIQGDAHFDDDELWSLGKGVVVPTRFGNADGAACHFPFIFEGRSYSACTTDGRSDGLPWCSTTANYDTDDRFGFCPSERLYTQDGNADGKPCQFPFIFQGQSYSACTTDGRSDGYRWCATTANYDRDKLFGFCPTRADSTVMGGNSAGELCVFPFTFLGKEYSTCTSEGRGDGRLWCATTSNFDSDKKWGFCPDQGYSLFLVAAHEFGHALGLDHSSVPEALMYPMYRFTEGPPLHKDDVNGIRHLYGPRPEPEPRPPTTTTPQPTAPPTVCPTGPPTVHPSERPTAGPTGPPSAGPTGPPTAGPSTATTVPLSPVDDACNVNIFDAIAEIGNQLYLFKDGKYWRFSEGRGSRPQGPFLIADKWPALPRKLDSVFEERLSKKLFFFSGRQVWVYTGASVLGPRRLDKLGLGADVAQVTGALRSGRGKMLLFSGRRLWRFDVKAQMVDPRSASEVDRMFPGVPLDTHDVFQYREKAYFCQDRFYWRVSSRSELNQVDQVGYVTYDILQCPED
Description: The enzyme activity is measured by the rate of the color increase. The thiopeptide substrate is made up fresh as a 20 mM stock in 100% DMSO and the DTNB is dissolved in 100% DMSO as a 100 mM stock and stored in the dark at room temperature. Both the substrate and DTNB are diluted together to 1 mM with substrate buffer (50 mM HEPES pH 7.5, 5 mM CaCl2) before use. The stock of enzyme is diluted with buffer (50 mM HEPES, pH 7.5, 5 mM CaCl2, 0.02% Brij) to the desired final concentration.
Alternatively, a fluorescent peptide substrate is used. In this test procedure, the peptide substrate contains a fluorescent group and a quenching group. Upon cleavage of the substrate by an MMP, the fluorescence that is generated is quantitated on the fluorescence plate reader. The assay is run in HCBC assay buffer (50 mM HEPES, pH 7.0, 5 mM Ca^+2, 0.02% Brij, 0.5% Cysteine), with human recombinant MMP-1, MMP-9, or MMP-13. […] For the assay, substrate and enzymes are diluted in HCBC buffer to the desired concentrations. Compounds are added to the 96 well plate containing enzyme and the reaction is started by the addition of substrate.
For either the thiopeptide or fluorescent peptide test procedures, the slope of the line is calculated and represents the reaction rate. The linearity of the reaction rate is confirmed (r^2>0.85). The mean (x±sem) of the control rate is calculated and compared for statistical significance (p<0.05) with drug-treated rates using Dunnett's multiple comparison test.

Structure (SMILES) | melting point | IC50 (MMP-1) [nM] | IC50 (MMP-13) [nM] | IC50 [1] [nM] | further results
CC#CCOc1ccc(S(=O)(=O)N(C)C(C(=O)NO)C(C)(C)SCCN2CCOCC2)cc1 (centres unmarked) (as salt: hydrochloride) [Example 140, 2-({[4-(2-Butynyloxy)phenyl]sulfonyl)(methyl)amino]-N-hydroxy-3 Methyl-3-[(2(4-morpholinylethyl)sulfanyl]-butanamide Hydrochloride] | 50 °C (dec.) |  |  |  | 
CC#CCOc1ccc(S(=O)(=O)N(C)C(C(=O)NO)C(C)(C)SCCn2ccnc2)cc1 (centres unmarked) (as salt: hydrochloride) [Example 144, 2-({[4-(2-Butynyloxy)phenyl]sulfonyl)(methyl)amino]-N-hydroxy-3 Methyl-3-{[2-(1H-imidazol-1-yl)ethyl]sulfanyl}butanamide] | 67 to 70 °C |  |  |  | 
CC#CCOc1ccc(S(=O)(=O)NC(C(=O)NO)c2ccc(OCCN3CCCC3)cc2)cc1 (centres unmarked) (as salt: hydrochloride) [Example 205, 2-({[4-(2-Butynyloxy)phenyl]sulfonyl}amino)-N-hydroxy-2-{4-[2-(1-pyrrolidinyl)ethoxy]phenyl}acetamide] | 70 °C |  |  |  | 
CC#CCOc1ccc(S(=O)(=O)N2CCSC3(CCN(Cc4ccccc4)CC3)C2C(=O)NO)cc1 (centres unmarked) (as salt: hydrochloride) [Example 241, 9-Benzyl-4-{[4-(2-butynyloxy)phenyl]sulfonyl}-N-hydroxy-1-thia-4,9-diazaspiro[5.5]undecane-5-carboxamide] | 151 to 153 °C |  |  |  | 
CC#CCOc1ccc(S(=O)(=O)NC(C(=O)NO)C(C)(C)SCC(=O)O)cc1 (centres unmarked) (as salt: sodium) [Example 166, tert-Butyl {[2-({[4-2-Butynyloxy)phenyl]sulfonyl}amino)-3-(hydroxyamino)-1,1-dimethyl-3-oxopropyl]sulfanyl Acetic Acid, Sodium Salt] | 75 °C (dec.) |  |  |  | 
CC#CCOc1ccc(S(=O)(=O)N(C)C(C(=O)NO)C(C)(C)SCCN2CCCC2)cc1 (centres unmarked) [Example 143, 2-({[4-(2-Butynyloxy)phenyl]sulfonyl)(methyl)amino]-N-hydroxy-3 Methyl-3-{[2(1-pyrrolidinyl)ethyl]sulfanyl}butanamide] | 55 to 57 °C |  |  |  | 
CC#CCOc1ccc(S(=O)(=O)N(C)C(C(=O)NO)C(C)(C)SCC(C)N(CC)CC)cc1 (centres unmarked) [Example 148, 2-({[4-(2-Butynyloxy)phenyl]sulfonyl)(methyl)amino]-N-hydroxy-3 Methyl-3-{[2-(diethylamino)propyl]sulfanyl}butanamide] | 65 to 68 °C |  |  |  | 
CC#CCOc1ccc(S(=O)(=O)N(C)C(C(=O)NO)c2ccc(OCCCNC(=O)OCC)cc2)cc1 (centres unmarked) [Example 193, Ethyl 3-{4-[1-[{[4-(2-Butynyloxy)phenyl]sulfonyl}(methyl)amino]-2-(hydroxyamino)-2-oxoethyl]phenoxy}propylcarbamate] | 60 to 62 °C | ~1000 | 29.3 | 61 | 
CC#CCOc1ccc(S(=O)(=O)N(C)C(C(=O)NO)c2ccc(OCCCNC(C)=O)cc2)cc1 (centres unmarked) [Example 194] | 88 °C (dec.) | 592 | 15 | 61 | 
CC#CCOc1ccc(S(=O)(=O)N(C)C(C(=O)NO)c2ccc(OCCCNC(=O)OCCCC)cc2)cc1 (centres unmarked) [Example 195, Butyl 3-{4-[1-[{[4-(2-Butynyloxy)phenyl]sulfonyl}(methyl)amino]-2-(hydroxyamino)-2-oxoethyl]phenoxy}propylcarbamate] | 50 to 55 °C | > 1000 | 28 | 122 | 
CC#CCOc1ccc(S(=O)(=O)N(C)C(C(=O)NO)c2ccc(OCCCNC(=O)OCc3ccccc3)cc2)cc1 (centres unmarked) [Example 196, Benzyl 3-{4-[1-[{[4-(2-Butynyloxy)phenyl]sulfonyl}(methyl)amino]-2-(hydroxyamino)-2-oxoethyl]phenoxy}propylcarbamate] | 48 to 50 °C |  | 31 | 109 | 
CC#CCOc1ccc(S(=O)(=O)N(C)C(C(=O)NO)c2ccc(OCCCNS(C)(=O)=O)cc2)cc1 (centres unmarked) [Example 197, 2-[{[4-(2-Butynyloxy)phenyl]sulfonyl}(methyl)amino]-N-hydroxy-2-(4-{3-[(methylsulfonyl)amino]propoxy}phenyl)acetamide] | 65 to 70 °C | 569 | 24 | 25 | 
CC#CCOc1ccc(S(=O)(=O)N(C)C(C(=O)NO)c2ccc(OCCCNC(=O)Nc3ccccc3)cc2)cc1 (centres unmarked) [Example 198, 2-(4-{3-[(Anilinocarbonyl)amino]propoxy}phenyl)-2-[{[4-(2-butynyloxy)phenyl]sulfonyl}(methyl)amino]-N-hydroxyacetamide] | 135 °C (dec.) | 834 | 11 | 62 | 
CC#CCOc1ccc(S(=O)(=O)NC(C(=O)NO)c2ccc(OCCN3CCN(C(=O)OC(C)(C)C)CC3)cc2)cc1 (centres unmarked) [Example 202, tert-Butyl 4-(2-{4-[1-({[4-(2-Butynyloxy)phenyl]sulfonyl}amino)-2-(hydroxyamino)-2-oxoethyl)phenoxy]ethyl)-1-piperazinecarboxylate] | 92 to 95 °C | > 10000 | 345 | 113 | 
CC#CCOc1ccc(S(=O)(=O)NC(C(=O)NO)c2ccc(OCCN3CCOCC3)cc2)cc1 (centres unmarked) [Example 206, 2-({[4-(2-Butynyloxy)phenyl]sulfonyl}amino)-N-hydroxy-2-{4-[2-(4-morpholinyl)ethoxy]phenyl}acetamide] | 80 to 86 °C | > 10000 | 147 | 33 | 
CC#CCOc1ccc(S(=O)(=O)N2CCSC3(CCN(C)CC3)C2C(=O)NO)cc1 (centres unmarked) [Example 242, 9-Methyl-4-{[4-(2-butynyloxy)phenyl]sulfonyl}-N-hydroxy-1-thia-4,9-diazaspiro[5.5]undecane-5-carboxamide] | 195 to 198 °C |  |  |  | IC50 ([1]; Table 9): 869 nM
CC#CCOc1ccc(S(=O)(=O)N2C[C@H](CN)SC(C)(C)[C@@H]2C(=O)NO)cc1 [Example 276, (3S,6S)-cis-6-(Aminomethyl)-4-{[4-(2-butynyloxy)phenyl]sulfonyl}-N-hydroxy-2,2-dimethyl-3-thiomorpholinecarboxamide Hydrochloride] |  |  |  |  | IC50 (MMP-1; Table 11): 21 nM; IC50 (MMP-9; Table 11): 84 nM; IC50 (MMP-13; Table 11): 24 nM; IC50 ([1]; Table 11): 57 nM
CC#CCOc1ccc(S(=O)(=O)N2CSC(C)(C)[C@@H]2C(=O)NO)cc1 [Example 286, (4S)-3-{[4-(2-Butynyloxy)phenyl]sulfonyl}-N-hydroxy-5,5-dimethyl-1,3-thiazolidine-4-carboxamide] |  | 3040 | 852 | 20 | IC50 (MMP-9): 1790 nM
CC#CCOc1ccc(S(=O)(=O)N2CCN(C(=O)c3ccccc3)CCC2C(=O)NO)cc1 (centres unmarked) [Example 289, 1-Benzoyl-4-{[4-(2-butynyloxy)phenyl]sulfonyl}-N-hydroxy-1,4-diazepane-5-carboxamide] |  | 113 | 4 | 10 | IC50 (MMP-9): 12 nM
CC#CCOc1ccc(S(=O)(=O)N2CCSCCC2C(=O)NO)cc1 (centres unmarked) [Example 294, 4-{[4-(2-Butynyloxy)phenyl]sulfonyl}-N-hydroxy-1,4-thiazepine-5-carboxamide] | 95 to 98 °C |  |  |  | 
